Results taken from article PMC10762078, “Role of UPF1-LIN28A interaction during early differentiation of pluripotent stem cells” (Nature Communications, 2024).

System: hPSCs
Assay: RT-qPCR of pluripotency and germ-layer markers during differentiation with CPP-peptides (Supplementary Fig. 7b-e)
Format: cell-based, human
Details: ectodermal differentiation
Method: For CPP-conjugated peptide delivery, HeLa, 293T, and PA-1 cells were incubated with CPP-conjugated peptides or CPP-FITC at 2 μM in DMEM with 10% FBS for 12 h a day before cell harvest. hPSCs were treated with CPP-conjugated peptides at 10 μM in mTeSR Plus Medium, and the peptide-containing medium was changed every day over 10 days. The ROCK inhibitor (Tocris Bioscience, Y-27632) treated-hPSCs were dissociated into single cells using Accutase (Merck, SCR005) and differentiated into ectoderm, mesoderm, and endoderm using the STEMdiff Trilineage Differentiation Kit ([…] Technologies, 05230) following the manufacturer’s protocol. Differentiated cells treated with CPP-conjugated peptides were analysed at 0, 3, and 5 days for ectoderm and endoderm, and at 0, 3, and 4 days for mesoderm. […]
cDNA was synthesised using RevertAid Reverse Transcriptase (Thermo Fisher Scientific, EP0441) with synthesised random hexamer (Macrogen) for total RNA or stem-loop primers for miRNA. For RT-qPCR reactions, the SensiFAST SYBR No-ROX kit (Meridian Bioscience) was used according to the manufacturer’s protocol. All data analysis and visualisation were conducted using R 3.6.1 [www.r-project.org] or GraphPad Prism 10. RT primers for miRNA and RT-qPCR primer sequences are provided in Supplementary Data 6. […]
FPKM of each gene was presented f r om RNA-seq analysis. b–e hPSCs wer e treated with the indicated peptide during each germ la ye r differentiation. […]
An unpaired Student’s t-test was used for a–e. Data are presented as mean values ± SEM. All statistical test us ed wer e two-s ided. T he m inim um number of independent biological replicate experim ents was a–f n = 3. T he experiments wer e conducted three tim es, each iteration producing consistent results.

How did the “transcripts downregulated in ectodermal differentiation” value turn out when “KKKWCRKKKSSADEKRYRALKRTAERELLMNA [CPP-P8, CPP conjugated to P8]” was run?
Its value is “downregulated the expression of genes closely associated with CNS development (DCX, NEUROD1, NOS2, and PAX3)”.

And the “transcripts upregulated in ectodermal differentiation” value?
Its value is “upregulated the essential transcription factors for retinal gliogenesis and NOTCH signalling (LHX2, NOTCH1, and DLK1)”.
